We go through 19 compounds from US11040981B2, “Pyrrolotriazine compounds and methods of inhibiting TAM kinases” (Syros Pharmaceuticals, Inc., priority 2017, dated 2021).

The target in assay [1] is T1, MERTK (Homo sapiens, UniProt Q12866).
T1 sequence (Q12866 21-999): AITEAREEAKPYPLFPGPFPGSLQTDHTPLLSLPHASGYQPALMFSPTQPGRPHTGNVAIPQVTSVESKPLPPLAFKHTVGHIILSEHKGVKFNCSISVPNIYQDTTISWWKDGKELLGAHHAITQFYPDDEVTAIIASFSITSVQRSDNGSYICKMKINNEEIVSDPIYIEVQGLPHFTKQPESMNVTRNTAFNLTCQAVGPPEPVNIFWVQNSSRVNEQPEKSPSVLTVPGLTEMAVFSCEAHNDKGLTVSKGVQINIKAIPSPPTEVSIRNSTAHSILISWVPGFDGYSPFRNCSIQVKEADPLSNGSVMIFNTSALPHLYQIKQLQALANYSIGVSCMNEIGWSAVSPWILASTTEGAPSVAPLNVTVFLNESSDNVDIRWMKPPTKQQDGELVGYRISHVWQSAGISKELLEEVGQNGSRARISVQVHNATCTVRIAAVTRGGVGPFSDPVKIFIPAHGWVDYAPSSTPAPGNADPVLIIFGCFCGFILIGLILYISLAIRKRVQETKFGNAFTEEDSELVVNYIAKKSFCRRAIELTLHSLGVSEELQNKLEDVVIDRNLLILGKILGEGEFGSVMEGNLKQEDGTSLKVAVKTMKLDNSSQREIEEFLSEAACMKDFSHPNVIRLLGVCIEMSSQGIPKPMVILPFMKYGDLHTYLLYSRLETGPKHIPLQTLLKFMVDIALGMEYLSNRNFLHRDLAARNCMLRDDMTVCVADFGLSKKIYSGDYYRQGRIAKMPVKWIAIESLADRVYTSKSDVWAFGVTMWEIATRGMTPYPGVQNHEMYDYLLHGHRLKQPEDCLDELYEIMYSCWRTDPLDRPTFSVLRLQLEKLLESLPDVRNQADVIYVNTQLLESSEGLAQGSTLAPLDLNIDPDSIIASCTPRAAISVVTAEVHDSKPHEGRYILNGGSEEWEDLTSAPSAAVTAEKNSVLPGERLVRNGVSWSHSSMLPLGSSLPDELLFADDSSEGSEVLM
Description: TR-FRET kinase activity assay, MERTK. In kind it is biochemical. The conditions noted are these: for IC50: TR-FRET activity assay, ATP at Km, 60 minutes, read-out: Mer IC50; for FLT3/Mer ratio (FLT3 IC50/Mer IC50): ratio of Mer to FLT3: FLT3 IC50/Mer IC50. In a few lines:
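Inhibition is measured as loss of phospho-peptide formation: kinase, fluorescent tyrosine peptide and compound are combined, ATP is added at Km, and the reaction proceeds 60 min at RT in pH 7.5 HEPES buffer. An EDTA stop and Eu-labelled phospho-specific antibody allow TR-FRET detection for IC50 fitting.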

For assay [2], the target named is T2, TYRO3 (Homo sapiens, UniProt Q06418).
T2 sequence (Q06418 41-890): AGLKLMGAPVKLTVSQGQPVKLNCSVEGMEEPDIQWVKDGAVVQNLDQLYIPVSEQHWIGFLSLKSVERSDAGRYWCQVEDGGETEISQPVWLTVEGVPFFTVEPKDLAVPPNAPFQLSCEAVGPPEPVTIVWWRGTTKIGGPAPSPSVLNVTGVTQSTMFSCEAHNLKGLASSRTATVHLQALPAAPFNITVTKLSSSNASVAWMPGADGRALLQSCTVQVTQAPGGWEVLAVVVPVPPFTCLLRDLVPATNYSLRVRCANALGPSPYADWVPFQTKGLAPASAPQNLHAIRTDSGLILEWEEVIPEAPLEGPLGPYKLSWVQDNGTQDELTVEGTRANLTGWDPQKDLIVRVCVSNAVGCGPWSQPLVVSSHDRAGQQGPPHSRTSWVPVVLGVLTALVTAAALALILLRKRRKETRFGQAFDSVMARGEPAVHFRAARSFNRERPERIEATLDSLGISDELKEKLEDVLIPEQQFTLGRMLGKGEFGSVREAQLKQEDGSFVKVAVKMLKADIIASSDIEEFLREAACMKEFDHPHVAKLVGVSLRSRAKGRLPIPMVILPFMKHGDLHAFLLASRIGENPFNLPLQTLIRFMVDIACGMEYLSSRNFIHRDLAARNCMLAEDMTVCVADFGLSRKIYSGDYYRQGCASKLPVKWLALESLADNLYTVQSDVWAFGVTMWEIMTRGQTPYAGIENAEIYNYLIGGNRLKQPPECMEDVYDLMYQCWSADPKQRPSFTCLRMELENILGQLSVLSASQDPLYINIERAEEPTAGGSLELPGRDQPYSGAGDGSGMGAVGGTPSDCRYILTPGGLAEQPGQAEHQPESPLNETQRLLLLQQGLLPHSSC
Description: TR-FRET kinase activity assay, TYRO3. To be noted: ATP at Km, 60 minutes. In kind it is biochemical. How it is done:
IC50 values for compound inhibition of AXL, FLT3, MERTK and TYRO3 activity were determined by using a TR-FRET activity assay. A polypeptide substrate with a fluorescent label is phosphorylated on a tyrosine by each enzyme, where the now phosphorylated product is bound by a Europium-labeled antibody specific to that phosphorylation site. The proximity between the antibody and the substrate gives a signal known as TR-FRET. As the enzyme is inhibited by compound, less phosphorylated peptide product is made causing a decrease in overall signal.
Activity assays were performed in a 384-well, small volume, black microplates in an active enzyme volume of 10 μL and final developed volume of 20 μL. Final assay conditions are 50 mM HEPES pH 7.5, 10 mM MgCl2, 1 mM EGTA, 0.01% Brij 35 and 1 mM DTT all at RT. Enzyme, substrate labeled peptide and compound are mixed, and then the reaction is initiated with the addition of ATP at Km concentration for each enzyme. The reaction is allowed to run 60 minutes and then quenched with a 12.5 mM EDTA (ethylenediamine tetraacetic acid) solution. The plate is then developed with the addition of Europium labeled antibody for a final volume of 20 μL and is then incubated for 30 minutes in darkness. Plates are read in a Pherastar plate reader. Data is analyzed in GraphPad PRISM.
The results of these assays are shown in Table 1, below, wherein “No.” designates compound number (FIG. 1); “A” represents a value of ≤100 nM; “B” a value of >100 nM and ≤1 μM; “C” a value of >1 μM and ≤10 μM; “D” a value of >10 μM; “ND” is not determined. The ratio of Mer to FLT3 is calculated as follows: FLT3 IC50/Mer IC50. “+” represents a ratio of >2.0 and <10; “++” represents a ratio of between 10 and 100; and “+++” represents a ratio of >100.
(In general: TR-FRET usually uses a lanthanide donor and a delayed reading to cut background.)

The IC50 is the concentration at which inhibition is half-maximal. For `COC[C@H](C)Nc1ncc2c(-c3ccc(N4CCN(C)CC4)nc3)cc([C@H]3CC[C@H](O)CC3)n2n1` [Compound 271], in assay [1], the half-maximal inhibitory concentration (IC50) was not above 100 nM; the “FLT3/Mer ratio (FLT3 IC50/Mer IC50)” value was “++ (“++” represents a ratio of between 10 and 100)”. The compound also returned an IC50 in assay [2] not above 100 nM.

With `COC[C@H](C)Nc1ncc2c(-c3cnn(CC(=O)N[C@H]4CCOC4)c3)cc([C@H]3CC[C@H](O)CC3)n2n1` [Compound 237], the IC50 in assay [1] and in assay [2] was not above 100 nM throughout. For the same compound, the “FLT3/Mer ratio (FLT3 IC50/Mer IC50)” value in assay [1] was “+++ (“+++” represents a ratio of >100)”.

In the case of `COC[C@H](C)Nc1ncc2c(-c3cncc(C#N)c3)cc([C@H]3CC[C@H](O)CC3)n2n1` [Compound 201], the IC50 in assay [1] and in assay [2] was not above 100 nM each time. Also, in assay [1], the “FLT3/Mer ratio (FLT3 IC50/Mer IC50)” value was “+++ (“+++” represents a ratio of >100)”.

As for `CCCCCC(C)Nc1ncc2c(C3=CCC(C(=O)N4CCOCC4)CC3)cc(C3CCC(O)CC3)n2n1` (mixture of isomers) [Compound 110], in assay [1], the IC50 was not above 100 nM; the “FLT3/Mer ratio (FLT3 IC50/Mer IC50)” value is “++ (“++” represents a ratio of between 10 and 100)”. In assay [2], the IC50 was not above 100 nM.

With `CCCCC[C@H](C)Nc1ncc2c([C@H]3CC[C@H](C(=O)N4CCOCC4)CC3)cc([C@H]3CC[C@H](O)CC3)n2n1` [Compound 108], in assay [1], the IC50 was not above 100 nM and the “FLT3/Mer ratio (FLT3 IC50/Mer IC50)” value was “+++ (“+++” represents a ratio of >100)”. The half-maximal inhibitory concentration (IC50) in assay [2] is 100 to 1000 nM.

In the case of `CC(C)OC[C@H](C)Nc1ncc2c(-c3ccc(CN4CCOCC4)cc3)cc([C@H]3CC[C@H](O)CC3)n2n1` [Compound 214], in assay [1], the half-maximal inhibitory concentration (IC50) was not above 100 nM and the “FLT3/Mer ratio (FLT3 IC50/Mer IC50)” value is on record as “+++ (“+++” represents a ratio of >100)”. The IC50 in assay [2] is not above 100 nM.

Consider `COC[C@H](C)Nc1ncc2c(-c3cnnc(C)c3)cc([C@H]3CC[C@H](O)CC3)n2n1` [Compound 267], for which, in assay [1], the IC50 was not above 100 nM and the “FLT3/Mer ratio (FLT3 IC50/Mer IC50)” value was “+++ (“+++” represents a ratio of >100)”. The compound also registered an IC50 in assay [2] not above 100 nM.

Consider `CCCCC[C@H](C)Nc1ncc2c([C@H]3CC[C@@H](C(=O)N4CCOCC4)CC3)cc([C@H]3CC[C@H](O)CC3)n2n1` [Compound 109, ((cis)-4-(2-((S)-heptan-2-ylamino)-7-((trans)-4-hydroxycyclohexyl)pyrrolo[2,1-f][1,2,4]triazin-5-yl)cyclohexyl)(morpholino)methanone], for which, in assay [1], the IC50 was not above 100 nM; the “FLT3/Mer ratio (FLT3 IC50/Mer IC50)” value is “++ (“++” represents a ratio of between 10 and 100)”. In assay [2], this compound displayed a half-maximal inhibitory concentration (IC50) not above 100 nM.

`CC(CCF)Nc1ncc2c(-c3ccc(CN4CCOCC4)cc3)cc(C3CCC(O)CC3)n2n1` (stereo not drawn) [Compound 244]: in assay [1], the IC50 was not above 100 nM; the “FLT3/Mer ratio (FLT3 IC50/Mer IC50)” value is “++ (“++” represents a ratio of between 10 and 100)”. In assay [2], this compound had an IC50 not above 100 nM.

As to `COC[C@H](C)Nc1ncc2c(-c3cnn(CC(=O)N(C)C)c3)cc([C@H]3CC[C@H](O)CC3)n2n1` [Compound 238], in assay [1], the IC50 is not above 100 nM and the “FLT3/Mer ratio (FLT3 IC50/Mer IC50)” value is reported as “+++ (“+++” represents a ratio of >100)”. For the same compound, the IC50 in assay [2] was not above 100 nM.

Consider `COC[C@H](C)Nc1ncc2c(-c3ccc(C(=O)N4CCOCC4)nc3)cc([C@H]3CC[C@H](O)CC3)n2n1` [Compound 227], for which, in assay [1], the IC50 was not above 100 nM and the “FLT3/Mer ratio (FLT3 IC50/Mer IC50)” value was “+++ (“+++” represents a ratio of >100)”. The compound further came in with an IC50 in assay [2] not above 100 nM.

As to `COC[C@H](C)Nc1ncc2c(-c3ccc(C(=O)N4CCS(=O)(=O)CC4)cc3)cc([C@H]3CC[C@H](O)CC3)n2n1` [Compound 197], the IC50 in assay [1] and in assay [2] was not above 100 nM each time. Besides, in assay [1], the “FLT3/Mer ratio (FLT3 IC50/Mer IC50)” value is recorded as “+++ (“+++” represents a ratio of >100)”.

As to `COC[C@H](C)Nc1ncc2c(-c3cccc(CN4CCOCC4)c3)cc([C@H]3CC[C@H](O)CC3)n2n1` [Compound 217], the IC50 in assay [1] and in assay [2] was not above 100 nM in each case. Also, the “FLT3/Mer ratio (FLT3 IC50/Mer IC50)” value in assay [1] was “+++ (“+++” represents a ratio of >100)”.

As to `COC[C@H](C)Nc1ncc2c(-c3cncc(C(=O)N4CCCC4)c3)cc([C@H]3CC[C@H](O)CC3)n2n1` [Compound 232], the IC50 in assay [1] and in assay [2] was not above 100 nM in each case. The “FLT3/Mer ratio (FLT3 IC50/Mer IC50)” value in assay [1] is on record as “+++ (“+++” represents a ratio of >100)”.

As for `COCC(C)Nc1ncc2c(-c3cccc(C)n3)cc(C3CCC(O)CC3)n2n1` (stereo not drawn) [Compound 253], in assay [1], the IC50 was not above 100 nM and the “FLT3/Mer ratio (FLT3 IC50/Mer IC50)” value is reported as “+++ (“+++” represents a ratio of >100)”. The IC50 in assay [2] is not above 100 nM.

For the compound `COC[C@H](C)Nc1ncc2c(-c3cnn(CC(=O)NC(C)C)c3)cc([C@H]3CC[C@H](O)CC3)n2n1` [Compound 235], in assay [1], the IC50 was not above 100 nM and the “FLT3/Mer ratio (FLT3 IC50/Mer IC50)” value was “+++ (“+++” represents a ratio of >100)”. Also, the IC50 in assay [2] is not above 100 nM.

For `COC[C@H](C)Nc1ncc2c(-c3cnn(CC(=O)N4CCCC4)c3)cc([C@H]3CC[C@H](O)CC3)n2n1` [Compound 239], the half-maximal inhibitory concentration (IC50) in assay [1] and in assay [2] was not above 100 nM throughout. The “FLT3/Mer ratio (FLT3 IC50/Mer IC50)” value in assay [1] is “+++ (“+++” represents a ratio of >100)”.

As for `COCC(C)Nc1ncc2c(-c3cnn(C4COC4)c3)cc(C3CCC(O)CC3)n2n1` (stereo not drawn) [Compound 221], in assay [1], the IC50 is not above 100 nM and the “FLT3/Mer ratio (FLT3 IC50/Mer IC50)” value is given as “+++ (“+++” represents a ratio of >100)”. Further, the IC50 in assay [2] is not above 100 nM.

With `COC[C@H](C)Nc1ncc2c(-c3cncc(C(=O)N4CCN(C)CC4)c3)cc([C@H]3CC[C@H](O)CC3)n2n1` [Compound 234], in assay [1], the IC50 was not above 100 nM and the “FLT3/Mer ratio (FLT3 IC50/Mer IC50)” value is “+++ (“+++” represents a ratio of >100)”. In assay [2], this compound showed an IC50 not above 100 nM.
